Measured values from paper PMC10745061 (Marine Drugs, 2023).
Entries after “also recorded” stand apart in the source; their conditions may differ. Where two headings read alike, the source gives them in different places. Where a SMILES comes first, the peptide text is derived from it. Bridges are numbered along the chain shown (N, C = ends).

What was measured:
[1] = test system: E. coli ML-35p cytoplasmic membrane; assay: Cytoplasmic membrane permeabilization, ONPG hydrolysis; format: cell-based, Escherichia coli; settings: at concentrations ≥ MIC values, PBS, 37 °C, ONPG 2.5 mM, OD405
Experimental: Cationic AMPs perform their antibacterial function by damaging membrane integrity and/or specifically inhibiting intracellular processes. In this study, an effect of the obtained peptides on bacterial cytoplasmic membrane integrity was analyzed with the use of E. coli ML-35p, the strain constitutively expressing β-galactosidase and lacking the functional lactose permease which is necessary for the uptake of o-nitrophenyl-β-D-galactoside (ONPG). When β-galactosidase cleaves ONPG, β-D-galactose and o-nitrophenol are released. The latter is a chromogenic product with absorbance at 405 nm. […] Thus, the rapid membranolytic mode of action seems to be predominant for the HfBRI-28 peptide.
Figure 4 Kinetics of changes in the E. coli ML35p cytoplasmic membrane permeability measured with the use of ONPG (OD405) hydrolysis caused by the examined peptides. Peptide concentrations (μM) are presented within the dashed box. […]
To examine the ability of the peptides to affect the barrier function of inner membrane of Gram-negative bacteria, we used the E. coli ML-35p strain constitutively expressing cytoplasmic β-galactosidase but lacking lactose permease. The state of the E. coli ML-35p cytoplasmic membrane was assessed based on its permeability to chromogenic marker o-nitrophenyl-β-D-galactopyranoside (ONPG, AppliChem), which is the β-galactosidase substrate. […]

[2] = test system: human red blood cells (hRBCs); assay: Hemolysis, hemoglobin release assay; format: cell-based
Experimental: Figure 3 Biological activity of the peptides towards human cells. (A) Hemolytic effect on human red blood cells (hRBCs) after 2 h incubation (the hemoglobin release assay). (B) Cytotoxicity towards transformed human embryonic kidney cells (HEK293T) after 16 h incubation (the resazurin assay).
The hemolytic activity of the peptides was tested against the fresh suspension of human red blood cells (hRBC) using the hemoglobin release assay, as described previously. Two experiments were performed with hRBC from blood samples of independent donors. The quantitative data are represented as average means with standard deviations. The cytotoxic effect of the peptides was tested on transformed human embryonic kidney cells (HEK293T) using the resazurin assay. The technique is based on the ability of live cell dehydrogenases to reduce a blue resazurin to pink and fluorescent resorufin. A total of 10^4 cells per well in Dulbecco’s modified Eagle’s medium (DMEM/F12) supplemented with 10% FBS were placed into 96-well plates for 24 h in the CO2-incubator (5% CO2, 37 °C). […] Fluorescence of the formed resorufin was measured with the microplate reader AF2200 (Eppendorf, Germany) using the following channel: λExc = 535 nm, λEm = 595 nm. The fluorescence signal in the wells containing cells cultured without the peptides was assumed to represent 100% cell viability. […]

RP-HPLC retention time = format: physicochemical; settings: semi-preparative RP-HPLC, C18 column, linear gradient 5 to 80% (v/v) acetonitrile in water with 0.1% TFA within 50 min
Experimental: Figure 2 Structure analysis of the novel BRICHOS-related peptides HfBRI-25 and HfBRI-28. (A) Characteristics of the obtained peptides. ^1 Mean Kyte–Doolittle hydrophobicity index (GRAVY) was calculated using the Expasy ProtParam tool. The maximum and minimum values of this index are +4.5 and −4.5 for poly-Ile and poly-Arg sequences, respectively. ^2 Percentage of hydrophobic amino acids was calculated using the APD3 database. ^3 Retention times were measured using semi-preparative reversed-phase high-performance liquid chromatography (RP-HPLC) on a C18 column with a linear gradient from 5 to 80% (v/v) acetonitrile in water containing 0.1% trifluoroacetic acid (TFA) within 50 min. ^4 Molecular masses were calculated by considering the presence of four Cys residues forming two disulfide bonds in the case of HfBRI-25. ^5 Molecular masses were determined experimentally using MALDI-TOF mass spectrometry. (B) Spatial structures of HfBRI-25 and HfBRI-28 were modeled using the AlphaFold algorithm (ColabFold server). The top-rated models, according to predicted local distance difference test (pLDDT) scores, were visualized by the PyMOL software. (C) The CD-spectra of the peptides in water or in the presence of 30 mM DPC micelles. (D) The CONTINLL program was used for CD data analysis. […]

Escherichia coli ML-35p = settings: salt-containing MHB supplemented with 5% FBS, compared with no FBS
Excerpt: The results were expressed as the median values determined on the basis of at least three independent experiments performed in triplicate.

[3] = test system: E. coli K12 SBS 1936 biofilm; assay: Effect on established biofilm, MTT assay; format: cell-based, Escherichia coli; settings: wide concentration range, 24 h pre-formed biofilm, 16 h treatment in LB, 37 °C
Experimental: Bacterial biofilms play an important role in UTIs, being responsible for their persistence. Therefore, the eradication of mature biofilms is an extremely challenging task because high concentrations or doses of antibacterial agents are required. Here, the ability of HfBRI-25 to disrupt established biofilms was evaluated as a number of viable bacteria in biofilm using the MTT assay. According to our previous data, E. coli K12 SBS 1936 was chosen as a strong biofilm-producer that can form it in different media.
E. coli K12 SBS1936 was grown in LB broth overnight at 37 °C and diluted in the same media to obtain 1 × 10^6 CFU/mL. A total of 100 μL of bacterial suspension was added to each well of the 96-well polystyrene plate and grown at 32 °C and 120 rpm for 24 h. The wells were washed twice with sterile water to remove non-adherent cells. In parallel, 100 μL of peptide or ciprofloxacin solutions, serially diluted in LB medium using a separate 96-well polystyrene plate, were added to each well with pre-formed biofilm and incubated at 37 °C and 180 rpm for 16 h. Biofilm viability was assessed by using the MTT reagent (Sigma). […] Absorbance of each well was measured at 570 nm. Bacterial survival was calculated as a percentage relative to samples without antimicrobial agent. […]

E. coli ATCC 25922 = settings: BALB/c mice, n = 5, i.p. infection 10^6 CFU with 2.5% mucin; 10 mg/kg i.p. at 1 h and 4 h after infection; 7 days
[4] = 25% human serum in PBS pH 7.4, 37 °C, RP-HPLC, ratio estimated from MALDI-TOF MS, two independent experiments
[5] = 25% human serum in PBS (pH 7.4) from healthy donor; settings: 37 °C, up to 24 h
trypsin = trypsin in 100 mM Tris/HCl buffer (pH 8.0); settings: 37 °C, up to 16 h

Q: With `CC[C@H](C)[C@H](NC(=O)CNC(=O)[C@H](CCCCN)NC(=O)[C@H](Cc1c[nH]c2ccccc12)NC(=O)[C@@H](NC(=O)[C@H](CO)NC(=O)[C@H](CCCCN)NC(=O)[C@H](CC(C)C)NC(=O)[C@H](Cc1c[nH]c2ccccc12)NC(=O)CN)[C@@H](C)CC)C(=O)N[C@@H](CCCCN)C(=O)N[C@@H](CCCCN)C(=O)N[C@@H](C)C(=O)N[C@H](C(=O)N[C@@H](CCCCN)C(=O)N[C@@H](Cc1c[nH]c2ccccc12)C(=O)N[C@H](C(=O)N[C@@H](CC(C)C)C(=O)N[C@@H](CCCNC(=N)N)C(=O)N[C@@H](Cc1c[nH]cn1)C(=O)NCC(=O)N[C@H](C(=O)N[C@@H](Cc1ccc(O)cc1)C(=O)N[C@H](C(=O)N[C@@H](CCCNC(=N)N)C(=O)N[C@H](C(=O)N[C@H](C(=O)N[C@@H](Cc1ccccc1)C(=O)O)[C@@H](C)O)[C@@H](C)CC)C(C)C)C(C)C)C(C)C)C(C)C` [HfBRI-28] (H-GWLKSIWKGIKKAVKWVLRHGVYVRITF-OH) as the compound, how does the Membrane damage [1] read?
A: Its Membrane damage is “effectively damaged membranes”.

Q: What about the “Hemolytic effect on human red blood cells” value [2] of the same compound?
A: The value was “strong hemolytic effect”.

Q: What about the “RP-HPLC Retention Time” value (RP-HPLC retention time) of the same compound?
A: Its value is 40.5 min.

Q: And the “Increase in MIC in the presence of serum” value (Escherichia coli ML-35p)?
A: Its value is “four- to eight-fold”.

Q: What does the source list for `O=C(O)c1cn(C2CC2)c2cc(N3CCNCC3)c(F)cc2c1=O` [ciprofloxacin, reference compound]?
A: Anti-biofilm efficiency (bacterial viability inside established biofilm) [3]: high efficiency at a wide concentration range; Survival / therapeutic efficacy (E. coli ATCC 25922): survival of all mice

Q: Which “a/b (%), ratio of the peptide forms in serum” value (shortened to “a/b (%), ratio”) ([4]; time 0 h) does the source give for `CC[C@H](C)[C@@H]1NC(=O)[C@H](Cc2c[nH]c3ccccc23)NC(=O)[C@H](C(C)C)NC(=O)[C@@H]2CSSC[C@H](NC(=O)[C@H](CCCNC(=N)N)NC(=O)[C@H](CCCNC(=N)N)NC(=O)[C@H](C(C)C)NC(=O)[C@H](CCCNC(=N)N)NC(=O)[C@H](CCCNC(=N)N)NC(=O)CNC(=O)[C@H](CC(N)=O)NC(=O)[C@H](C(C)C)NC(=O)[C@H](CO)NC1=O)C(=O)N[C@@H](Cc1c[nH]c3ccccc13)C(=O)NCC(=O)N[C@@H](CO)C(=O)NCC(=O)N[C@H](C(=O)O)CSSC[C@H](NC(=O)CNC(=O)[C@@H](N)CCCNC(=N)N)C(=O)N[C@@H](Cc1ccccc1)C(=O)N2` [form “b”] (H-RGCFCVWISVNGRRVRRCWGSGC-OH; disulfide 3-23, 5-18; N-terminus and C-terminus assumed) here?
A: Its value is 0%.

Q: And the “a/b (%), ratio” value ([4]; time 1 h)?
A: The value was 61%.

Q: What about the “a/b (%), ratio” value ([4]; time 3 h) of the same compound?
A: Its value is 94%.

Q: What about the “a/b (%), ratio” value ([4]; time 24 h) of the same compound?
A: Its value is 100%.

Q: Which results are given for SPRGCFCVWISVNGRRVRRCWGSGC?
A: cleaved bond [5]: Pro2-R3, major, 1 h; fragment found (trypsin): (4–16), major; also recorded: (19–25), major
